Data reported in patent publication US20190015335A1, “HEPATOPROTECTIVE PARTICLES AND SYSTEMS AND METHODS OF USE THEREOF” (South Dakota Board of Regents, priority 2017, published 2019).

Tests used:
[1] = system: GST activity in AML12 cells; assay: GST activity assay in AML12 cells; assay type: cell-based, mouse; conditions: 24 and 48 hours, 10 μM SFN, FIG. 4
Method: The effects of SFN (10 μM), MIL-88A MOF loaded with SFN (denoted as MIL-88A-SFN, 10 μM SFN final concentration), or a corresponding amount of unloaded MIL-88A MOF on the GST activity in AML12 cells were measured at 12, 24, or 48 hours after the treatment. The GST activity assay was performed in the presence of glutathione and 1-chloro-2,4-dinitrobenzene (a GST substrate). Measurements were performed in quadruplicate.

AML12 cells = assay: MTT assay of AML12 cell survival after doxorubicin; assay type: cell-based, mouse; conditions: FIG. 5
Method: (§1) MTT assay was performed to quantify AML12 cell survival after 24-hour exposure to 10 μM doxorubicin (DOX). The cells were pretreated with SFN or with MIL-88A-SFN. Control cells include those incubated with DOX without pretreatment, those incubated with MIL-88A-SFN alone without incubation with DOX, and those incubated with phosphate buffered saline (PBS). The activities of caspases and CYP1A1/CYP1B1 of these cells were also measured.

[2] = system: caspase 3/7 and caspase 9 in AML12 cells; assay: Caspase 3/7 and caspase 9 activity in AML12 cells after doxorubicin; assay type: cell-based, mouse; conditions: FIG. 6
Method: as §1

[3] = system: CYP1A1/CYP1B1 in AML12 cells; assay: CYP1A1/CYP1B1 activity in AML12 cells after doxorubicin; assay type: cell-based, mouse; conditions: FIG. 7
Method: as §1

[4] = system: GSTP1 and GSTA3 in B16F1 melanoma tumor tissues; assay: Western blot of GST expression in tumor tissues of mice bearing B16F1 tumor; assay type: in vivo; conditions: i.v., day 1 and day 2, FIG. 8B
Method: Mice bearing B16F1 tumor were intravenously administered with SFN or MIL-88A-SFN at a dose of 10 mg SFN per kg animal, through the tail vein in groups of eight. The expression levels of GSTP1 and GSTA3 in the liver and tumor tissues were measured by western blot at 24 and 48 h following the intravenous administration. Tissues from the groups of mice treated with PBS or MIL-88A were also analyzed.

[5] = system: alanine aminotransferase (ALT) activity in blood serum; assay: ALT activity in blood serum of mice bearing B16F1 tumor (DOX); assay type: in vivo
Method: (§2) Mice bearing a B16F1 tumor were intravenously administered through the tail vein in different groups of eight: (1) pretreatment with 25 mg of MIL-88A-SFN per kg of mouse at day 0 (corresponding to 3 mg SFN per kg of mouse according to the loading capacity of SFN in MIL-88A), followed by DOX at day 1 at 10 mg per kg of mouse; (2) pretreatment with SFN at 3 mg per kg of mouse at day 0, followed by DOX at day 1 at 10 mg per kg of mouse; (3) PBS injected at day 0, followed by DOX at day 1 at 10 mg per kg of mouse; and (4) PBS injected at both day 0 and day 1. Liver and blood samples were collected and analyzed to identify liver damage and morphology.

[6] = system: caspase 3/7 in liver tissues; assay: Caspase 3/7 activity in liver tissues of mice bearing B16F1 tumor (DOX); assay type: in vivo
Method: as §2

[7] = system: CYP1A1/CYP1B1 in liver tissues; assay: CYP1A1/CYP1B1 activity in liver tissues of mice bearing B16F1 tumor (DOX); assay type: in vivo
Method: as §2

liver tissues = assay: Morphological microscopic analysis of liver tissues (DOX); assay type: in vivo, mice
Method: as §2

[8] = system: GSTP1, GSTA3 and NQO1 in AML12 cells; conditions: 10 μM SFN, FIG. 3
Method: To validate the protective effect of SFN on a mouse hepatocyte cell line AML12, the expression levels of two glutathione-S-transferase (GST) isoforms, P1 and A3 (denoted as GSTP1 and GSTA3, respectively) and NAD(P)H:quinone oxidoreductase (NQO1), were quantified using western blot analysis after incubating the AML12 cells with SFN for 12, 24, and 36 hours. Beta-actin was used as a loading control.

[9] = system: alanine aminotransferase (ALT) activity in blood serum; assay: ALT activity in blood serum of mice bearing B16F1 tumor (DTIC); assay type: in vivo; conditions: DTIC 120 mg per kg, 4 cycles, FIG. 16
Method: (§3) Mice bearing B16F1 tumor were intravenously administered through the tail vein in different groups of eight: (1) pretreatment with PLGA-SBN (corresponding to 10 mg SBN per kg of mouse), followed by dacarbazine (DTIC) on the next day at a dose of 120 mg per kg mouse; (2) pretreatment with SBN (10 mg per kg), followed by DTIC on the next day at a dose of 120 mg per kg mouse; (3) PBS, followed by DTIC on the next day at a dose of 120 mg per kg mouse; (4) pretreatment with plain PLGA and free (non-encapsulated) SBN (10 mg per kg of mouse), followed by PBS on the next day; and (5) PBS injected at both days (once per day). Liver and blood samples were collected and analyzed to identify liver damage and morphology.

bilirubin in blood serum = assay: Bilirubin concentration in blood serum of mice bearing B16F1 tumor (DTIC); assay type: in vivo; conditions: DTIC 120 mg per kg, 4 cycles, FIG. 17
Method: as §3

[10] = system: caspase 3 in liver tissues; assay: Western blot of pro-caspase 3 and active caspase 3 in liver tissues (DTIC); assay type: in vivo, mice; conditions: DTIC 120 mg per kg, 4 cycles, FIG. 18
Method: as §3

B16F1 tumor = assay: Tumor volume in mice bearing B16F1 tumor, DOX with or without pretreatment; assay type: in vivo; conditions: DOX 10 mg per kg i.v. at day 1, with or without pretreatment, vs PBS only, FIG. 9
[11] = pretreatment then 10 μM DOX 24 h

Structure (SMILES): C[S+]([O-])CCCCN=C=S (stereo not shown) [SFN, sulforaphane]
- GST activity [1]: equaled the GST activity in the cells treated with SFN-loaded MIL-88A
- apoptosis / cell survival after pretreatment (AML12 cells; [11]): significantly decreased apoptosis
- caspase activity after pretreatment [2, 11]: significantly decreased
- DOX-induced upregulation of CYP1A1/CYP1B1 after pretreatment [3, 11]: suppressed the upregulation
- GST expression in B16F1 melanoma tumor tissues [4]: neither SFN nor MIL-88A-SFN strongly affected
- DOX-induced upregulation of ALT activity after pretreatment ([5]; 3 mg SFN per kg day 0, DOX 10 mg per kg day 1, FIG. 10): attenuated the upregulation
- DOX-induced upregulation of liver caspase activity after pretreatment ([6]; 3 mg SFN per kg day 0, DOX 10 mg per kg day 1, FIG. 11): but not SFN, attenuated the upregulation
- DOX-induced upregulation of liver CYP1A/CYP1B activity after pretreatment ([7]; 3 mg SFN per kg day 0, DOX 10 mg per kg day 1, FIG. 12): but not SFN, attenuated the upregulation
- DOX-induced liver pathology after pretreatment (liver tissues; 3 mg SFN per kg day 0, DOX 10 mg per kg day 1): attenuated the aforementioned symptoms of hepatotoxicity
- expression of phase 2 enzymes GSTP1 and GSTA3 ([8]; 24 h, vs untreated cells): upregulation
- expression of NQO1 [8]: enhanced expression

Structure (SMILES): CN(C)/N=N/c1[nH]cnc1C(N)=O [DTIC, dacarbazine]
- ALT activity in blood serum [9]: induced an upregulation
- bilirubin concentration in blood serum (bilirubin in blood serum): induced an upregulation
- caspase 3 activation in liver tissues [10]: induced caspase 3 activation

Structure (SMILES): COc1cccc2c1C(=O)c1c(O)c3c(c(O)c1C2=O)C[C@@](O)(C(=O)CO)C[C@@H]3O[C@H]1C[C@H](N)[C@H](O)[C@H](C)O1 [DOX, doxorubicin]
- cell survival rate (AML12 cells; 10 μM DOX alone 24 h): lowest survival rate
- caspase activity ([2]; 10 μM DOX alone 24 h): highest caspase activity
- level of CYP1A1/CYP1B1 ([3]; 10 μM DOX 24 h): induced an increase
- tumor volume (B16F1 tumor): lower tumor volumes up to at least 9 days
- ALT activity in blood serum ([5]; DOX 10 mg per kg i.v., FIG. 10): induced an upregulation
- caspase activity in the liver tissues ([6]; DOX 10 mg per kg i.v., FIG. 11): induced an upregulation
- CYP1A/CYP1B activity in the liver tissues ([7]; DOX 10 mg per kg i.v., FIG. 12): induced an upregulation
- liver morphology (hepatotoxicity) (liver tissues; DOX 10 mg per kg i.v.): induced moderate cholestasis, focal necrosis, and mononuclear infiltration of sinusoids
